Data from patent US8399689B2, “Chrysophaentin antimicrobial compounds that inhibit FtsZ protein” (The United States of America, as represented by the …, priority 2010, dated 2013).
Converted amounts (≈) assume the structure as drawn. “Also recorded” adds a separate entry of the source.

Legend:
GTP binding site of FtsZ = GTP binding site of FtsZ (Escherichia coli, UniProt P0A9A6); assay: Competition STD NMR with GTPγS; parameters: species or system E. coli; settings: for mode of binding relative to GTP/GTPγS: GTPγS titration 0.5-3.0 equivalents
[1] = system: methicillin-resistant S. aureus (MRSA, ATCC BAA-41); assay: Agar disk diffusion assay, MRSA; type: cell-based, Staphylococcus aureus
Protocol: (§1) Compounds 1-8 were tested for antimicrobial activity against Staphylococcus aureus (SA, ATCC 25923), methicillin-resistant S. aureus (MRSA, ATCC BAA-41), multidrug-resistant S. aureus (MDRSA, ATCC BAA-44), Enterococcus faecium (EF, ATCC 49032), vancomycin-resistant E. Faecium (VRE, ATCC 700221), and Bacillus subtilis (ATCC 49343) using a modified disk diffusion assay and microbroth liquid dilution assays. For disk diffusion assays, agar plates seeded with suspensions of bacteria were prepared by adding 500 μL of a 24 h culture of bacteria to 100 mL of autoclaved Mueller Hinton II agar and cooled to 55° C. Seeded liquid agar (10 mL) was transferred immediately to square Petri dishes and allowed to cool for 1 h. Control drugs used for each microorganism included kanamycin (50 μg) for S. aureus, and nitrofurantoin (25 μg) for MRSA. Following incubation at 37° C. for 18 h, zones of inhibition were measured. MICso values for compounds 1 and 4-8 were determined using a microbroth dilution assay outlined in the Clinical and Laboratory Standards Institute methods for susceptibility tests for bacteria that grow aerobically. Briefly, single bacterial colonies were used to inoculate 4 mL of Trypticase Soy broth (BD) for overnight growth and inoculum for each were diluted to 5×10^5 CFU/mL using the 0.5 McFarland standard. In a 96 well plate (Costar, round bottom), control antibiotics (oxacillin for SA and MRSA, vancomycin for EF and VRE, chloramphenicol for B. subtilis) or natural product inhibitors were added to Muller Hinton II broth (for S. aureus, MRSA, and B. subtilis) or 10% brain heart infusion broth (for E. faecium and VRE) in the first column of the well plates, and serially diluted across the plate, reserving wells for a positive growth control (no treatment). 10 μL of diluted bacteria were added to all wells with the exception of those kept for broth blanks (MHII or brain heart infusion broth only). Plates were incubated at 37° C. overnight and read at absorbance 600 nm on a Molecular Devices plate reader. Growth curves were plotted and ICso values obtained using Kalidagraph software.

[2] = system: Enterococcus faecium (EF, ATCC 49032); assay: Agar disk diffusion assay, E. faecium; type: cell-based
Protocol: as §1

tubulin = assay: Tubulin polymerization assay; type: biochemical; settings: for effect on tubulin polymerization: at 150 μM, 15 times its IC50 for FtsZ
[3] = system: control mammalian cell line BSC-1; assay: Cytotoxicity, BSC-1 control cells; type: cell-based; settings: no cytotoxicity at concentrations as high as
[4] = system: human colon tumor cell line HCT-116; assay: Cytotoxicity, HCT-116; type: cell-based; settings: did not inhibit growth at concentrations as high as
[5] = system: vancomycin-resistant E. Faecium (VRE, ATCC 700221); assay: Microbroth dilution assay, VREF; type: cell-based, Enterococcus faecium; settings: microbroth dilution, concentration at which growth is reduced by 50%
Protocol: as §1

[6] = Lowest concentrations leading to 8-10 mm zones of inhibition

GTP binding site of FtsZ, sequence (P0A9A6 whole entry, the tested form may be a part): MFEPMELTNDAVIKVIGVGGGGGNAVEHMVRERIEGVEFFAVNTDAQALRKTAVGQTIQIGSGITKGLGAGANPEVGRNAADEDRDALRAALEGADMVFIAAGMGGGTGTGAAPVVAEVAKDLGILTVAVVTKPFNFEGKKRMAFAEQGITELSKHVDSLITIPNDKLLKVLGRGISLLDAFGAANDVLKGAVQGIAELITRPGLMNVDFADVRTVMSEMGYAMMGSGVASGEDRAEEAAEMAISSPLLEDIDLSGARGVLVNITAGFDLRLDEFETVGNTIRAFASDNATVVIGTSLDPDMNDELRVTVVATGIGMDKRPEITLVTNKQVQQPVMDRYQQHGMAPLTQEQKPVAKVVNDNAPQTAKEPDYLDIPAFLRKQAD

Structure (SMILES): Oc1cc(O)c2c(c1)C/C(Cl)=C\Cc1cc(c(Cl)cc1O)Oc1c(O)cc(cc1O)C/C(Cl)=C\Cc1cc(c(Cl)cc1O)O2 [Compound 1, chrysophaentin 1]
- decrease in STD NMR signal intensity of compound on addition of GTPγS (GTP binding site of FtsZ; 0.5 equivalents GTPγS (625 μM), 1.25 mM compound, 12.5 μM FtsZ): ~50%
- mode of binding relative to GTP/GTPγS (GTP binding site of FtsZ; listed as chrysophaentin 1): in a competitive manner; also recorded: bind competitively
- mode of binding relative to GTP/GTPγS (GTP binding site of FtsZ; listed as compound 1): competitive inhibitor of GTP binding to FtsZ
- Agar disk diffusion (μg/disk) MRSA [1, 6]: 2 μg/disk
- zone of inhibition at 2 µg/disc ([1]; Staphylococcus aureus, at 2 μg/disk): 10 mm
- zone of inhibition at 2 µg/disc ([2]; Enterococcus faecium, ATCC49032, at 2 μg/disk): 10 mm
- Agar disk diffusion (μg/disk) E. faecium [2, 6]: 2 μg/disk
- selectivity for FtsZ over tubulin (tubulin): ≥ 15 fold
- effect on tubulin polymerization (tubulin; listed as chrysophaentin 1): no effect; also recorded: does not affect
- effect on tubulin polymerization (tubulin; listed as compound 1): no effect
- tubulin polymerization velocity v (tubulin; chrysophaentin 1 at 150 μM, paclitaxel, nocodazole at standardized concentrations): 49 min⁻¹
- concentration without cytotoxicity, BSC-1 [3]: > 100 µg/mL
- concentration without growth inhibition, HCT-116 [4]: > 50 µg/mL
- MIC50 ([5]; Enterococcus faecium, read-out: MIC50 (μg/mL) VREF): 2.9 ± 0.8 µg/mL (≈ 4.28 µM)
- MIC50 (μg/mL) VREF [5]: 2.8 ± 0.8 µg/mL (≈ 4.13 µM)
- MIC50 (μg/mL) VREF ([5]; listed as Chrysophaentin 1): 2.8 ± 0.8 µg/mL (≈ 4.13 µM)
